From PubChem BioAssay AID1963985 (Molecular Pharmacology Branch, DTP, NCI, 2024)

Test system: 252836-082-R-J2-PDC tumor spheroids, viability
Test: Anticancer human tumor 252836-082-R-J2-PDC patient-derived head and neck squamous cell carcinoma cell line growth inhibition [PI3K]
Conditions: spheroids with HUVEC and MSC; for IC50: curve of first compound; for viability, T/C: stronger effect = lower value
Method in brief: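 Agents were dosed from a top concentration near clinical Cmax (otherwise 10 microM) in half-log decrements, alone or combined with PI3K inhibitors. The spheroids contain tumor cells plus endothelial (HUVEC) and MSC stroma; viability is measured.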

[1] = second compound 0.0316 µM, first compound 0.0316 µM
[2] = second compound 0.0316 µM, first compound 0.1 µM
[3] = second compound 0.0316 µM, first compound 0.316 µM
[4] = second compound 0.0316 µM, first compound 1 µM
[5] = second compound 0.0316 µM, first compound 3.16 µM
[6] = second compound 0.0316 µM, first compound 10 µM
[7] = second compound 0.1 µM, first compound 0.0316 µM
[8] = second compound 0.1 µM, first compound 0.1 µM
[9] = second compound 0.1 µM, first compound 0.316 µM
[10] = second compound 0.1 µM, first compound 1 µM
[11] = second compound 0.1 µM, first compound 3.16 µM
[12] = second compound 0.1 µM, first compound 10 µM
[13] = second compound 0.316 µM, first compound 0.0316 µM
[14] = second compound 0.316 µM, first compound 0.1 µM
[15] = second compound 0.316 µM, first compound 0.316 µM
[16] = second compound 0.316 µM, first compound 1 µM
[17] = second compound 0.316 µM, first compound 3.16 µM
[18] = second compound 0.316 µM, first compound 10 µM
[19] = second compound 1 µM, first compound 0.0316 µM
[20] = second compound 1 µM, first compound 0.1 µM
[21] = second compound 1 µM, first compound 0.316 µM
[22] = second compound 1 µM, first compound 1 µM
[23] = second compound 1 µM, first compound 3.16 µM
[24] = second compound 1 µM, first compound 10 µM
[25] = second compound 3.16 µM, first compound 0.0316 µM
[26] = second compound 3.16 µM, first compound 0.1 µM
[27] = second compound 3.16 µM, first compound 0.316 µM
[28] = second compound 3.16 µM, first compound 1 µM
[29] = second compound 3.16 µM, first compound 3.16 µM
[30] = second compound 3.16 µM, first compound 10 µM
[31] = second compound 10 µM, first compound 0.0316 µM
[32] = second compound 10 µM, first compound 0.1 µM
[33] = second compound 10 µM, first compound 0.316 µM
[34] = second compound 10 µM, first compound 1 µM
[35] = second compound 10 µM, first compound 3.16 µM
[36] = second compound 10 µM, first compound 10 µM
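Further: spheroids exposed to agents for seven days before readout.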
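Wherever viability, T/C is given: percent of vehicle DMSO control viability so 100% = untreated growth.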

With `C=CC(=O)N1CCN(c2nc(=O)n(-c3c(C)ccnc3C(C)C)c3nc(-c4c(O)cccc4F)c(F)cc23)C(C)C1` (stereo unspecified) + Cc1nc(NC(=O)N2CCCC2C(N)=O)sc1-c1ccnc(C(C)(C)C(F)(F)F)c1 the IC50 (second compound 0.0316 µM) was > 10000 nM, the IC50 (second compound 0.1 µM) was > 10000 nM and the IC50 (second compound 0.316 µM) was > 10000 nM. The IC50 (second compound 1 µM) was > 10000 nM, the IC50 (second compound 3.16 µM) was < 31.6 nM and the IC50 (second compound 10 µM) was < 31.6 nM. It also gave a viability, T/C [1] of 101%, a viability, T/C [2] of 87.1% and a viability, T/C [3] of 104%. It also gave a viability, T/C [4] of 95.7%, a viability, T/C [5] of 107% and a viability, T/C [6] of 107%. For the same molecule, the viability, T/C [7] was 78.5%, the viability, T/C [8] was 82.1% and the viability, T/C [9] was 101%. The viability, T/C [10] was 79.5%, the viability, T/C [11] was 105% and the viability, T/C [12] was 95.8%. It also gave a viability, T/C [13] of 79.9%, a viability, T/C [14] of 83.2% and a viability, T/C [15] of 76%. The viability, T/C [16] was 86.5%, the viability, T/C [17] was 84.5% and the viability, T/C [18] was 80.9%. The viability, T/C [19] was 61.2%, the viability, T/C [20] was 60.4% and the viability, T/C [21] was 80.3%. The viability, T/C [22] was 73%, the viability, T/C [23] was 64.9% and the viability, T/C [24] was 75.9%. It also gave a viability, T/C [25] of 47.2%, a viability, T/C [26] of 49.1% and a viability, T/C [27] of 50.2%. For the same molecule, the viability, T/C [28] was 49.2%, the viability, T/C [29] was 74% and the viability, T/C [30] was 44.9%. The viability, T/C [31] was 37.2%, the viability, T/C [32] was 34.5% and the viability, T/C [33] was 36.3%. It also gave a viability, T/C [34] of 36.5%, a viability, T/C [35] of 40.2% and a viability, T/C [36] of 42.2%.
For `CC1(C)CCC(Nc2ncc(C(F)(F)F)c(-c3c[nH]c4c(P(C)(C)=O)c(C#N)ccc34)n2)CN1` (stereo unspecified) + CC(Nc1ncnc2nc[nH]c12)c1cc2cccc(Cl)c2c(=O)n1-c1ccccc1, the IC50 (second compound 0.0316 µM) was < 31.6 nM, the IC50 (second compound 0.1 µM) was < 31.6 nM and the IC50 (second compound 0.316 µM) was < 31.6 nM. For the same molecule, the IC50 (second compound 1 µM) was < 31.6 nM, the IC50 (second compound 3.16 µM) was < 31.6 nM and the IC50 (second compound 10 µM) was < 31.6 nM. The viability, T/C [1] was 31.1%, the viability, T/C [2] was 26.6% and the viability, T/C [3] was 28.6%. The viability, T/C [4] was 32.2%, the viability, T/C [5] was 34.7% and the viability, T/C [6] was 4.13%. For the same molecule, the viability, T/C [7] was 34.2%, the viability, T/C [8] was 27.4% and the viability, T/C [9] was 31.6%. For the same molecule, the viability, T/C [10] was 26.4%, the viability, T/C [11] was 36.9% and the viability, T/C [12] was 5.65%. For the same molecule, the viability, T/C [13] was 32.4%, the viability, T/C [14] was 32.9% and the viability, T/C [15] was 27.7%. The viability, T/C [16] was 30.1%, the viability, T/C [17] was 33.8% and the viability, T/C [18] was 4.38%. It also gave a viability, T/C [19] of 27.9%, a viability, T/C [20] of 31.8% and a viability, T/C [21] of 32.4%. The viability, T/C [22] was 28.7%, the viability, T/C [23] was 33.4% and the viability, T/C [24] was 4.12%. It also gave a viability, T/C [25] of 26.3%, a viability, T/C [26] of 26.2% and a viability, T/C [27] of 28%. The viability, T/C [28] was 31.9%, the viability, T/C [29] was 25.9% and the viability, T/C [30] was 3.79%. For the same molecule, the viability, T/C [31] was 27.2%, the viability, T/C [32] was 21.5% and the viability, T/C [33] was 26%. It also gave a viability, T/C [34] of 23%, a viability, T/C [35] of 22.6% and a viability, T/C [36] of 1.83%.
For `CCN1CCN(Cc2ccc(Nc3ncc(F)c(-c4cc(F)c5nc(C)n(C(C)C)c5c4)n3)nc2)CC1` + COc1c(OCCCN2CCOCC2)ccc2c3n(c(=NC(=O)c4cnc(N)nc4)nc12)CCN3, the IC50 (second compound 0.00316 µM) was > 1000 nM, the IC50 (second compound 0.01 µM) was > 1000 nM and the IC50 (second compound 0.0316 µM) was > 1000 nM. For the same molecule, the IC50 (second compound 0.1 µM) was < 3.16 nM, the IC50 (second compound 0.316 µM) was < 3.16 nM and the IC50 (second compound 1 µM) was < 3.16 nM. The viability, T/C (second compound 0.00316 µM, first compound 0.00316 µM) was 86.4%, the viability, T/C (second compound 0.00316 µM, first compound 0.01 µM) was 80.1% and the viability, T/C (second compound 0.00316 µM, first compound 0.0316 µM) was 97.1%. The viability, T/C (second compound 0.00316 µM, first compound 0.1 µM) was 85.4%, the viability, T/C (second compound 0.00316 µM, first compound 0.316 µM) was 91.6% and the viability, T/C (second compound 0.00316 µM, first compound 1 µM) was 82.6%. For the same molecule, the viability, T/C (second compound 0.01 µM, first compound 0.00316 µM) was 75.8%, the viability, T/C (second compound 0.01 µM, first compound 0.01 µM) was 75.2% and the viability, T/C (second compound 0.01 µM, first compound 0.0316 µM) was 82.5%. The viability, T/C (second compound 0.01 µM, first compound 0.1 µM) was 80.8%, the viability, T/C (second compound 0.01 µM, first compound 0.316 µM) was 72.6% and the viability, T/C (second compound 0.01 µM, first compound 1 µM) was 78%. For the same molecule, the viability, T/C (second compound 0.0316 µM, first compound 0.00316 µM) was 56.2%, the viability, T/C (second compound 0.0316 µM, first compound 0.01 µM) was 59% and the viability, T/C [1] was 55.4%. It also gave a viability, T/C [2] of 57%, a viability, T/C [3] of 55.5% and a viability, T/C [4] of 47%. For the same molecule, the viability, T/C (second compound 0.1 µM, first compound 0.00316 µM) was 34.6%, the viability, T/C (second compound 0.1 µM, first compound 0.01 µM) was 34.9% and the viability, T/C [7] was 31.2%. The viability, T/C [8] was 29.7%, the viability, T/C [9] was 33.9% and the viability, T/C [10] was 32.4%. The viability, T/C (second compound 0.316 µM, first compound 0.00316 µM) was 14.1%, the viability, T/C (second compound 0.316 µM, first compound 0.01 µM) was 15.2% and the viability, T/C [13] was 12.4%. The viability, T/C [14] was 13.1%, the viability, T/C [15] was 17.7% and the viability, T/C [16] was 14.9%. For the same molecule, the viability, T/C (second compound 1 µM, first compound 0.00316 µM) was 4.92%, the viability, T/C (second compound 1 µM, first compound 0.01 µM) was 3.69% and the viability, T/C [19] was 3.43%. The viability, T/C [20] was 4.13%, the viability, T/C [21] was 5.78% and the viability, T/C [22] was 8.31%.
